The values below come from EP3263567A1, “CARBOXAMIDE-SUBSTITUTED PYRAZOLES AND TRI(HETERO)ARYL-PYRAZOLES FOR USE IN METHODS OF TREATING AND / OR PREVENTING CARDIOVASCULAR DISEASES AND / OR COMORBIDITIES THEREOF” (AiCuris Anti-infective Cures GmbH, priority 2016, dated 2018).

Series [1] has as its target T1, human HCN4 currents (Homo sapiens, UniProt Q9Y3Q4).
T1 construct: CHO cells transiently expressing the HCN4 channel; expressed in transfected cells; host or cells: CHO (ATCC CCL-61), transiently transfected
T1 sequence (Q9Y3Q4 1-1203): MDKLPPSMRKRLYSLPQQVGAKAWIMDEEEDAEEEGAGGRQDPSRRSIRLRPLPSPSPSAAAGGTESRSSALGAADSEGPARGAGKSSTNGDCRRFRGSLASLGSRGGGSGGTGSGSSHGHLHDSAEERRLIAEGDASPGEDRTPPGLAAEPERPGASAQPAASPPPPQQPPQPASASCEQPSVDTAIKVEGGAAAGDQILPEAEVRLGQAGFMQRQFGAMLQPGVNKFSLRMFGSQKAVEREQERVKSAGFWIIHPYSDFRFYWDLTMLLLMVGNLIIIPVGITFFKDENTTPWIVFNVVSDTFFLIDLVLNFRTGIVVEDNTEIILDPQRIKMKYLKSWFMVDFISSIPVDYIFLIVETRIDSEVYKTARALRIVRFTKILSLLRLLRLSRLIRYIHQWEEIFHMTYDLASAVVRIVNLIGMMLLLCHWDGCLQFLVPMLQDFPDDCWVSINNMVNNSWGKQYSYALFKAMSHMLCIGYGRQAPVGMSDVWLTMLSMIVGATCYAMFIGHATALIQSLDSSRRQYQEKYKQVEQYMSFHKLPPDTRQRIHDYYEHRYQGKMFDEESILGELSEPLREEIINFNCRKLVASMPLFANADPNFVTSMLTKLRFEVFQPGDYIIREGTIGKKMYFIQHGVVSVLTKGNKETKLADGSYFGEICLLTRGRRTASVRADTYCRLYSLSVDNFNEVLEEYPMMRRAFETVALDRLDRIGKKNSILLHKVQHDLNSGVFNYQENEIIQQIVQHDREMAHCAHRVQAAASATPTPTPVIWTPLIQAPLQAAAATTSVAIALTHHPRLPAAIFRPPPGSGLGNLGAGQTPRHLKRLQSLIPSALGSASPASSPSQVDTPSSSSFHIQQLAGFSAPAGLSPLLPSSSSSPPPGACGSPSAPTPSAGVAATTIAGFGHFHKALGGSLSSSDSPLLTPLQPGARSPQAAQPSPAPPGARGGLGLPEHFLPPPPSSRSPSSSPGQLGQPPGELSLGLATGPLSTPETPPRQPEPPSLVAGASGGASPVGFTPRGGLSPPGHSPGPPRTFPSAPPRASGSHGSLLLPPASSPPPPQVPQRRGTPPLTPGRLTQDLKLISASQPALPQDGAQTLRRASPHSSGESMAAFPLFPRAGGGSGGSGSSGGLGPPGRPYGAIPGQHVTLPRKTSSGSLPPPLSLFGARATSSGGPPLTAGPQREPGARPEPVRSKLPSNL
Nature of the series: Whole-cell patch-clamp, HCN4 steady state currents in transiently transfected CHO cells. The format is cell-based. To be noted: for IC50: CHO cells transiently expressing HCN4, steady state current at -120 mV, n=3, read-out: IC50 (inhibition of HCN4 currents); for inhibition of the HCN4 current (result in words): tested first at 10 µM. From the text: The following six compounds in accordance with the invention: • Compound A: [drawing 81] i.e. 4-[5-[3-Chloro-5-(trifluoromethoxy) phenyl]-1-(pyridin-3-yl)-1H-pyrazol-3-yl]-5,6-dihydro-7H-pyrrolo[3,4-d]pyrimidin-7-one, • Compound B: [drawing 82] i.e. 4-[5-[3-Chloro-5-(trifluoromethoxy) phenyl]-1-(pyridin-3-yl)-1H-pyrazol-3-yl]-2,3-dihydro-1H-pyrrolo[3,4-c] pyridin-1-one, • Compound C: [drawing 83] i.e. 4-[5-[3-Chloro-5-(trifluoromethoxy) phenyl]-1-(pyridin-3-yl)-1H-pyrazol-3-yl]-5,6-dihydro-2-methyl-7H-pyrrolo[3, 4-d] pyrimidin-7-one, • Compound D: [drawing 84] i.e. 3-Amino-4-[5-[3-chloro-5-(trifluoromethoxy) phenyl]-1-(pyridin-3-yl)-1H-pyrazol-3-yl-carbonyl]-1,5-dihydro-2H-pyrrol-2-one, • Compound E: [drawing 85] i.e. 1-[[5-[3-Chloro-5-(trifluoromethoxy) phenyl]-1-(pyridin-3-yl)-1H-pyrazol-3-yl]carbonyl]-imidazolidin-4-one, • Compound F: [drawing 86] i.e. 4-[5-[3-Chloro-5-(trifluoromethoxy) phenyl]-1-(3-cyano-4-fluoro-phenyl)-1H-pyrazol-3-yl]-5,6-dihydro-7H-pyrrolo[3,4-d]pyrimidin-7-one, were tested on their effects on human HCN4 currents recorded from transiently transfected CHO cells, in direct comparison to the reference compounds described below: • Ivabradine: [drawing 87] i.e. ((S)-3-{3-[([3,4-Dimethoxy-bicyclo [4.2.0]octa-1,3,5-trien-7-yl]methyl)methylamino]propyl}-1,3,4,5-tetrahydro-7,8-dimethoxy-2H-3-benzazepin-2-on), • Compound X: [drawing 88] i.e. 1-[[1-(3-Chloro-4-fluorophenyl)-5-(3-chloro-5-fluorophenyl)-1 H-pyrazol-3-yl]carbonyl]-imidazolidin-4-one, • Compound Y: [drawing 89] i.e. N-(2-Amino-2-oxoethyl)-1-(3-chloro-4-fluorophenyl)-5-(3-chloro-5-fluorophenyl)-1H-pyrazole-3-carboxamide.
The pyrazole compounds X and Y as depicted above, and having structural similarities to the compounds of general formula (I) of the invention, were also tested to investigate whether the pure If current inhibitory effect of the compounds of the invention also extend to structurally closely related compounds.
Dependent on their solubility in the assay buffer, the compounds were tested first at one concentration of 10 µM (compound A, compound Y, compound X, compound B, compound E, compound F and ivabradine) or 1 µM for (compound C and D). If the current blocking of HCN4 at this concentration was higher than 50% the compounds were tested again at five concentrations of a half-logarithmic dilution series starting with either 10 µM or 1 µM as mentioned above (meaning 0.1 µM, 0.3 µM, 1 µM, 3 µM, and 10 µM or 0.01 µM, 0.03 µM 0.1 µM, 0.3 µM and 1 µM).
Test system: CHO cells transiently expressing the HCN4 channel; NCBI Reference Sequence: NP005468.1 (HCN4 channel); Source CHO: ATCC, CCL-61 LGC Standards GmbH, Wesel, Germany were used.
In 35 mm culture dishes CHO cells were seeded at a density allowing single cells to be recorded on the dish holder of the microscope and continuously perfused (at approximately 1 mL/min) with the bath solution described above. All solutions applied to cells including the pipette solution were maintained at room temperature (19 °C - 30 °C). After formation of a Gigaohm seal between the patch electrodes and individual cells (pipette resistance range: 2.0 MΩ - 7.0 MΩ; seal resistance range: > 1 GΩ) the cell membrane across the pipette tip was ruptured to assure electrical access to the cell interior (whole-cell patch-configuration). As soon as a stable seal was established, steady state currents were measured upon the hyperpolarization to -120 mV (2000 ms) from a holding potential of -40 mV. This voltage protocol (as shown in the scheme below) did run 5 times for control conditions and at least ten times for each test concentration. Pulse intervals were 20 s (0.05 Hz). If current amplitude was judged to be too low for measurement, another cell was recorded.
Once control recordings have been accomplished, cells were continuously perfused with bath solution containing the tested compounds as detailed above, 0.1 % DMSO or 100 µM ZD7288. […]

In series [2] the target is T2, HCN4 (Homo sapiens, UniProt Q9Y3Q4).
T2 sequence (Q9Y3Q4 1-1203): T1 sequence (Q9Y3Q4 1-1203)
The settings on record: literature value, Stieber et al. (2006) Mol Pharmacol 69, 1328-1337; read-out: IC50 mean (block of HCN4 channels); cited from earlier work.

Series [3] is described as follows: in vivo. The settings on record: dog, po, 30 mg/kg.
Protocol: (§1) A single oral dose of 30 or 100 mg/kg was applied to dogs. Pharmacokinetic parameters were assessed and compared.
Male and female Beagle dogs.
(§2) Plasma concentrations were obtained by LC-MS/MS measurements.
The nature of series [4]: Pharmacokinetics after single oral administration of formulations to dogs. The settings on record: 30 mg/kg single oral dose.
Protocol: as §1
Male and female Beagle dogs.
as §2

Molecules are shown by their SMILES.

What is called IC50 is the concentration that gives 50% inhibition. For orientation: AUC(0-inf) means the area under the concentration-time curve extrapolated to infinity. Low values mean less exposure, high ones more exposure.

With `O=C1NCc2c1ccnc2-c1cc(-c2cc(Cl)cc(OC(F)(F)F)c2)n(-c2cccnc2)n1` [Compound B, 4-[5-[3-Chloro-5-(trifluoromethoxy)phenyl]-1-(pyridin-3-yl)-1H-pyrazol-3-yl]-2,3-dihydro-1H-pyrrolo[3,4-c] pyridin-1-one], in series [1] (0.1 µM), the “block of HCN4 currents at a single concentration” value was “almost completely”. In series [1], the IC50 was in the range of 30 to 580 nM. Turning to `Cc1nc2c(c(-c3cc(-c4cc(Cl)cc(OC(F)(F)F)c4)n(-c4cccnc4)n3)n1)CNC2=O` [Compound C, 4-[5-[3-Chloro-5-(trifluoromethoxy)phenyl]-1-(pyridin-3-yl)-1H-pyrazol-3-yl]-5,6-dihydro-2-methyl-7H-pyrrolo[3,4-d] pyrimidin-7-one], in series [1], the IC50 is 30 to 580 nM. On the same count and under the same terms, with `NC1=C(C(=O)c2cc(-c3cc(Cl)cc(OC(F)(F)F)c3)n(-c3cccnc3)n2)CNC1=O` [Compound D, 3-Amino-4-[5-[3-chloro-5-(trifluoromethoxy)phenyl]-1-(pyridin-3-yl)-1H-pyrazol-3-yl-carbonyl]-1,5-dihydro-2H-pyrrol-2-one] the figure was 30 to 580 nM; with `O=C1CN(C(=O)c2cc(-c3cc(Cl)cc(OC(F)(F)F)c3)n(-c3cccnc3)n2)CN1` [Compound E, 1-[[5-[3-Chloro-5-(trifluoromethoxy)phenyl]-1-(pyridin-3-yl)-1H-pyrazol-3-yl]carbonyl]-imidazolidin-4-one], 30 to 580 nM. Still for that read-out and setting: with `N#Cc1cc(-n2nc(-c3ncnc4c3CNC4=O)cc2-c2cc(Cl)cc(OC(F)(F)F)c2)ccc1F` [Compound F, 4-[5-[3-Chloro-5-(trifluoromethoxy)phenyl]-1-(3-cyano-4-fluoro-phenyl)-1H-pyrazol-3-yl]-5,6-dihydro-7H-pyrrolo[3,4-d]pyrimidin-7-one] the figure was 30 to 580 nM. As for `O=C1CN(C(=O)c2cc(-c3cc(F)cc(Cl)c3)n(-c3ccc(F)c(Cl)c3)n2)CN1` [Compound X, 1-[[1-(3-Chloro-4-fluorophenyl)-5-(3-chloro-5-fluorophenyl)-1 H-pyrazol-3-yl]carbonyl]-imidazolidin-4-one, reference compound], the “inhibition of the HCN4 current (result in words)” value in series [1] was “not identified as inhibitors of the HCN4 current”. The same measure, in the same setting: with `NC(=O)CNC(=O)c1cc(-c2cc(F)cc(Cl)c2)n(-c2ccc(F)c(Cl)c2)n1` [Compound Y, N-(2-Amino-2-oxoethyl)-1-(3-chloro-4-fluorophenyl)-5-(3-chloro-5-fluorophenyl)-1H-pyrazole-3-carboxamide, reference compound] the entry was “not identified as inhibitors of the HCN4 current”. For `COc1cc2c(cc1OC)CC(=O)N(CCCN(C)C[C@H]1Cc3cc(OC)c(OC)cc31)CC2` [Ivabradine, (S)-3-{3-[([3,4-Dimethoxy-bicyclo [4.2.0]octa-1,3,5-trien-7-yl]methyl)methylamino]propyl}-1,3,4,5-tetrahydro-7,8-dimethoxy-2H-3-benzazepin-2-on, reference compound], the figures for the IC50 in series [2] and in series [1] were roughly 2150 nM and 4460 nM, respectively. Consider `CCN(c1ccccc1)c1cc(NC)[n+](C)c(C)n1` [ZD7288, reference compound], for which the “relative steady state current (HCN4)” value in series [1] (100 µM, mean ± SEM of n=3 cells) is 12.89 ± 1.19%.

Consider `O=C1NCc2c1ncnc2-c1cc(-c2cc(Cl)cc(OC(F)(F)F)c2)n(-c2cccnc2)n1` [ethane sulfonate], for which the AUC(0-inf) in series [3] turned out to be 218 µg·h/mL. In addition, the vomiting result in series [4] is “two to three out of four animals”.
